Results: patent US20090093521A1, “2, 5-Bis-Diamine [1,4] Benzoquinone-Derivatives” (priority 2005, published 2009)

Columns and labels:
BuChE = BuChE (Homo sapiens, UniProt P06276); assay: biochemical; type: biochemical; conditions: Ellman method, saturating substrate, absorbance at 412 nm
AChE = AChE (Homo sapiens, UniProt P22303); type: biochemical; conditions: for IC50: Ellman method, saturating substrate (acetylthiocholine), absorbance at 412 nm; for Selectivity IC50 (BuChE)/IC50 (AchE): ratio of IC50 (BuChE) to IC50 (AChE), preference for AChE over BuChE
Sequence of AChE (P22303 32-614): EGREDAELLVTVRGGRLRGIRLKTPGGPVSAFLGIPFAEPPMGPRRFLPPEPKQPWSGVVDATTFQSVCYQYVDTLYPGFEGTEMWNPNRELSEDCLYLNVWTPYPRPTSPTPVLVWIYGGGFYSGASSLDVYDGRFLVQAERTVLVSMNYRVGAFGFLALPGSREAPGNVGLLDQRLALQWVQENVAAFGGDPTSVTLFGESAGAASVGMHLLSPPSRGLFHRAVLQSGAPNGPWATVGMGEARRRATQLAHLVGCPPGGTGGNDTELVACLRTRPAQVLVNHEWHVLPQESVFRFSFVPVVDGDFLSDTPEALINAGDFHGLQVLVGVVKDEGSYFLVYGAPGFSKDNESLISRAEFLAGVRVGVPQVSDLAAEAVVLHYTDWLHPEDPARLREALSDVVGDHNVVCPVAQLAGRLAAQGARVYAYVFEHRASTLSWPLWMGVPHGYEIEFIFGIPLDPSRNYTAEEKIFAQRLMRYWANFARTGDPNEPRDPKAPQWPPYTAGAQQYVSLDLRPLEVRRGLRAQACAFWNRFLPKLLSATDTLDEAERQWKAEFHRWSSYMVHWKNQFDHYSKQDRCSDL

Sequence of BuChE (P06276 29-602): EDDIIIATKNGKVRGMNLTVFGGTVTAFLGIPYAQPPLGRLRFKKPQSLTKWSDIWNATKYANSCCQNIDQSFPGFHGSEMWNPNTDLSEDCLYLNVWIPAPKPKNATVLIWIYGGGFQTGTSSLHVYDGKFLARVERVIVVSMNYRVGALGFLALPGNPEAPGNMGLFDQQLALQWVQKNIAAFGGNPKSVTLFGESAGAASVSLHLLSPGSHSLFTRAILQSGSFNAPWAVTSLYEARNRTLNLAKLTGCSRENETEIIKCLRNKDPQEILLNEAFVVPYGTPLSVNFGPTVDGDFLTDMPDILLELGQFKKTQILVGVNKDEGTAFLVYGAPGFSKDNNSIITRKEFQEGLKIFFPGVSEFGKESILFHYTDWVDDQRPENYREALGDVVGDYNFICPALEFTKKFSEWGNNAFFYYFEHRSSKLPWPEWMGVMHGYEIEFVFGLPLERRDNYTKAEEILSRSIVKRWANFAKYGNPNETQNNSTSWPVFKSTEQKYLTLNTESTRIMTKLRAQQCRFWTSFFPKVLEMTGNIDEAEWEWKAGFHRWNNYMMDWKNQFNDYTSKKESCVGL

Structure (SMILES): CCN(CCCCCCNC1=C(F)C(=O)C(NCCCCCCN(CC)Cc2ccccc2OC)=C(F)C1=O)Cc1ccccc1OC [Compound 35, 2,5-bis-{6-[ethyl-(2-methoxy-benzyl)-amine]-hexylamine}-3,6-difluorine-[1,4]benzoquinone]
- IC50 (BuChE): 1520 ± 90 nM
- IC50 (AChE): 5.17 ± 0.17 nM
- Selectivity IC50 (BuChE)/IC50 (AchE) (AChE): 294

Structure (SMILES): CCN(CCCCCCNC1=C(Br)C(=O)C(NCCCCCCN(CC)Cc2ccccc2OC)=C(Br)C1=O)Cc1ccccc1OC [Compound 36, 2,5-bis-{6-[ethyl-(2-methoxy-benzyl)-amine]-hexylamine}-3,6-dibromine-[1,4]benzoquinone]
- IC50 (BuChE): 800 ± 62 nM
- IC50 (AChE): 2.66 ± 0.19 nM
- Selectivity IC50 (BuChE)/IC50 (AchE) (AChE): 300
